Source: patent US9617253B2, “Molecules having pesticidal utility, and intermediates, compositions, and processes, related thereto” (Dow AgroSciences LLC, priority 2015, dated 2017)

How the values were obtained:
[1] = tested on: Cabbage Looper (Trichoplusia ni, TRIPNI); assay: Bioassay on Cabbage Looper (CL), 128-well diet tray assay; format: in vivo; conditions: 168 h, second instar CL larvae, 50 μg/cm^2 on artificial diet, 25° C., five to seven days, average of eight wells, read-out: CL % Control (or Mortality) rating
Description: (§1) Certain molecules disclosed in this document were tested against BAW and CL using procedures described in the following examples. In the reporting of the results, the “BAW & CL Rating Table” was used (See Table Section).
Bioassays on CL were conducted using a 128-well diet tray assay. One to five second instar CL larvae were placed in each well (3 mL) of the diet tray that had been previously filled with 1 mL of artificial diet to which 50 μg/cm^2 of the test molecule (dissolved in 50 μL of 90:10 acetone-water mixture) had been applied (to each of eight wells) and then allowed to dry. Trays were covered with a clear self-adhesive cover, vented to allow gas exchange, and held at 25° C., 14:10 light-dark for five to seven days. Percent mortality was recorded for the larvae in each well; activity in the eight wells was then averaged. The results are indicated in the table entitled “Table ABC: Biological Results” (See Table Section).

[2] = tested on: Beet Armyworm (Spodoptera exigua, LAPHEG); assay: Bioassay on Beet Armyworm (BAW), 128-well diet tray assay; format: in vivo; conditions: 168 h, second instar BAW larvae, 50 μg/cm^2 on artificial diet, 25° C., five to seven days, average of eight wells, read-out: BAW % Control (or Mortality) rating
Description: as §1
Bioassays on BAW were conducted using a 128-well diet tray assay. One to five second instar BAW larvae were placed in each well (3 mL) of the diet tray that had been previously filled with 1 mL of artificial diet to which 50 μg/cm^2 of the test molecule (dissolved in 50 μL of 90:10 acetone-water mixture) had been applied (to each of eight wells) and then allowed to dry. Trays were covered with a clear self-adhesive cover, vented to allow gas exchange, and held at 25° C., 14:10 light-dark for five to seven days. Percent mortality was recorded for the larvae in each well; activity in the eight wells was then averaged. The results are indicated in the table entitled “Table ABC: Biological Results” (See Table Section).

Structure (SMILES)	melting point [°C]	mortality at 50 µg/cm2 [1] [%]	mortality at 50 µg/cm2 [2] [%]
COCc1ccc(C)cc1N1C(=O)CS/C1=N\C(=O)Nc1ccc(OCc2ncn(-c3ccc(OC(F)(F)F)cc3)n2)cc1	165 to 167		
COCc1ccc(C)cc1N1C(=O)CS/C1=N\C(=O)Nc1ccc(OCc2ncn(-c3ccc(OC(F)(F)F)cc3)n2)cc1F	132 to 134		
Cc1ccc(C(C)C)c(N2C(=O)CS/C2=N\C(=O)Nc2ccc(OCc3ncn(-c4ccc(OC(F)(F)F)cc4)n3)c(F)c2)c1 [F35, (Z)-1-(3-Fluoro-4-((1-(4-(trifluoromethoxy)phenyl)-1H-1,2,4-triazol-3-yl)methoxy)phenyl)-3-(3-(2-isopropyl-5-methylphenyl)-4-oxothiazolidin-2-ylidene)urea]		50 to 100	50 to 100
COCc1ccc(C)cc1N1C(=O)CS/C1=N\C(=O)Nc1ccc(OCc2ncn(-c3ccc(OC(F)(F)F)cc3)n2)c(Cl)c1 [F40, (Z)-1-(3-Chloro-4-((1-(4-(trifluoromethoxy)phenyl)-1H-1,2,4-triazol-3-yl)methoxy)phenyl)-3-(3-(2-(methoxymethyl)-5-methylphenyl)-4-oxothiazolidin-2-ylidene)urea]		50 to 100	50 to 100
COCc1ccc(C)cc1N1C(=O)CS/C1=N\C(=O)Nc1ccc(OCc2ncn(-c3ccc(OC(F)(F)F)cc3)n2)nc1 [F46, (Z)-1-(3-(2-(Methoxymethyl)-5-methylphenyl)-4-oxothiazolidin-2-ylidene)-3-(6-((1-(4-(trifluoromethoxy)phenyl)-1H-1,2,4-triazol-3-yl)methoxy)pyridin-3-yl)urea]		0	0 to 50
Cc1ccc(C(C)C)c(N2C(=O)CS/C2=N\C(=O)Nc2ccc(OCc3ncn(-c4ccc(OC(F)(F)F)cc4)n3)cc2F)c1 [F16, (Z)-1-(2-Fluoro-4-((1-(4-(trifluoromethoxy)phenyl)-1H-1,2,4-triazol-3-yl)methoxy)phenyl)-3-(3-(2-isopropyl-5-methylphenyl)-4-oxothiazolidin-2-ylidene)urea]		50 to 100	50 to 100
CCCc1ccc(C)cc1N1C(=O)CS/C1=N\C(=O)Nc1ccc(OCc2ncn(-c3ccc(OC(F)(F)F)cc3)n2)c(F)c1 [F36, (Z)-1-(3-Fluoro-4-((1-(4-(trifluoromethoxy)phenyl)-1H-1,2,4-triazol-3-yl)methoxy)phenyl)-3-(3-(5-methyl-2-propylphenyl)-4-oxothiazolidin-2-ylidene)urea]		50 to 100	50 to 100
Cc1ccc(C(C)C)c(N2C(=O)CS/C2=N\C(=O)Nc2ccc(OCc3ncn(-c4ccc(OC(F)(F)F)cc4)n3)cc2Cl)c1 [F29, (Z)-1-(2-Chloro-4-((1-(4-(trifluoromethoxy)phenyl)-1H-1,2,4-triazol-3-yl)methoxy)phenyl)-3-(3-(2-isopropyl-5-methylphenyl)-4-oxothiazolidin-2-ylidene)urea]		50 to 100	50 to 100
CCCc1ccc(C)cc1N1C(=O)CS/C1=N\C(=O)Nc1ccc(OCc2ncn(-c3ccc(OC(F)(F)F)cc3)n2)cc1C [F26, (Z)-1-(3-(5-Methyl-2-propylphenyl)-4-oxothiazolidin-2-ylidene)-3-(2-methyl-4-((1-(4-(trifluoromethoxy)phenyl)-1H-1,2,4-triazol-3-yl)methoxy)phenyl)urea]		50 to 100	50 to 100
COc1cc(OCc2ncn(-c3ccc(OC(F)(F)F)cc3)n2)ccc1NC(=O)/N=C1\SCC(=O)N1c1cc(C)ccc1C(C)C [F32, (Z)-1-(3-(2-Isopropyl-5-methylphenyl)-4-oxothiazolidin-2-ylidene)-3-(2-methoxy-4-((1-(4-(trifluoromethoxy)phenyl)-1H-1,2,4-triazol-3-yl)methoxy)phenyl)urea]		50 to 100	50 to 100
COCc1ccc(C)cc1N1C(=O)CS/C1=N\C(=O)Nc1ccc(OCc2ncn(-c3ccc(OC(F)(F)F)cc3)n2)cc1Cl	148 to 150		
COC(C)c1ccc(C)cc1N1C(=O)CS/C1=N\C(=O)Nc1c(F)cc(OCc2ncn(-c3ccc(OC(F)(F)F)cc3)n2)cc1F (stereo not shown)	147 to 152		
CCCc1ccc(C)cc1N1C(=O)CS/C1=N\C(=O)Nc1ccc(OCc2ncn(-c3ccc(OC(F)(F)F)cc3)n2)cc1Cl [F30, (Z)-1-(2-Chloro-4-((1-(4-(trifluoromethoxy)phenyl)-1H-1,2,4-triazol-3-yl)methoxy)phenyl)-3-(3-(5-methyl-2-propylphenyl)-4-oxothiazolidin-2-ylidene)urea]		50 to 100	50 to 100
Cc1ccc(C(C)C)c(N2C(=O)CS/C2=N\C(=O)Nc2ccc(COc3ncn(-c4ccc(OC(F)(F)F)cc4)n3)c(F)c2)c1 [F3, (Z)-1-(3-Fluoro-4-(((1-(4-(trifluoromethoxy)phenyl)-1H-1,2,4-triazol-3-yl)oxy)methyl)phenyl)-3-(3-(2-isopropyl-5-methylphenyl)-4-oxothiazolidin-2-ylidene)urea]		50 to 100	50 to 100
COCc1ccc(C)cc1N1C(=O)CS/C1=N\C(=O)Nc1cc(F)c(OCc2ncn(-c3ccc(OC(F)(F)F)cc3)n2)c(F)c1 [F43, (Z)-1-(3,5-Difluoro-4-((1-(4-(trifluoromethoxy)phenyl)-1H-1,2,4-triazol-3-yl)methoxy)phenyl)-3-(3-(2-(methoxymethyl)-5-methylphenyl)-4-oxothiazolidin-2-ylidene)urea]		50 to 100	50 to 100
COCc1ccc(C)cc1N1C(=O)CS/C1=N\C(=O)Nc1ccc(OCc2ncn(-c3ccc(OC(F)(F)F)cc3)n2)c(F)c1 [F37, (Z)-1-(3-Fluoro-4-((1-(4-(trifluoromethoxy)phenyl)-1H-1,2,4-triazol-3-yl)methoxy)phenyl)-3-(3-(2-(methoxymethyl)-5-methylphenyl)-4-oxothiazolidin-2-ylidene)urea]		50 to 100	50 to 100
CCCc1ccc(C)cc1N1C(=O)CS/C1=N\C(=O)Nc1ccc(OCc2ncn(-c3ccc(OC(F)(F)F)cc3)n2)cc1F [F23, (Z)-1-(2-Fluoro-4-((1-(4-(trifluoromethoxy)phenyl)-1H-1,2,4-triazol-3-yl)methoxy)phenyl)-3-(3-(5-methyl-2-propylphenyl)-4-oxothiazolidin-2-ylidene)urea]		50 to 100	50 to 100
CCCc1ccc(C)cc1N1C(=O)CS/C1=N\C(=O)Nc1c(F)cc(OCc2ncn(-c3ccc(OC(F)(F)F)cc3)n2)cc1F	169 to 172		
CCCc1ccc(C)cc1N1C(=O)CS/C1=N\C(=O)Nc1cc(F)c(OCc2ncn(-c3ccc(OC(F)(F)F)cc3)n2)c(F)c1 [F42, (Z)-1-(3,5-Difluoro-4-((1-(4-(trifluoromethoxy)phenyl)-1H-1,2,4-triazol-3-yl)methoxy)phenyl)-3-(3-(5-methyl-2-propylphenyl)-4-oxothiazolidin-2-ylidene)urea]		50 to 100	50 to 100
Cc1cc(N2C(=O)CS/C2=N\C(=O)Nc2ccc(COc3ncn(-c4ccc(OC(F)(F)F)cc4)n3)cc2F)c(C(C)C)cc1F [F12, (Z)-1-(3-(4-Fluoro-2-isopropyl-5-methylphenyl)-4-oxothiazolidin-2-ylidene)-3-(2-fluoro-4-(((1-(4-(trifluoromethoxy)phenyl)-1H-1,2,4-triazol-3-yl)oxy)methyl)phenyl)urea]		50 to 100	50 to 100
Cc1ccc(C(C)C)c(N2C(=O)CS/C2=N\C(=O)Nc2ccc(COc3ncn(-c4ccc(OC(F)(F)F)cc4)n3)cc2F)c1 [F2, (Z)-1-(2-Fluoro-4-(((1-(4-(trifluoromethoxy)phenyl)-1H-1,2,4-triazol-3-yl)oxy)methyl)phenyl)-3-(3-(2-isopropyl-5-methylphenyl)-4-oxothiazolidin-2-ylidene)urea]		50 to 100	50 to 100
